Measured values reported in patent US8680094B2, “1, 4-benzoxazine compounds and derivatives thereof as therapeutic drugs for the treatment of neurodegenerative conditions” (Board of Regents, The University of Texas System, priority 2008, dated 2014).
“And” between values parts separate entries of the source, which are not always exact repeats. Equal values may be shown once.

Tests used:
[1] = molecular target: GSK3β (Homo sapiens, UniProt P49841); assay: In vitro kinase activity; assay type: biochemical; conditions: percentage of control assays without compound, mean of duplicate
Protocol: (§1) To better understand the mechanism of action of the compounds of the present invention, but in no way a limitation; the effects of HSB-13 and ASK-2a on 20 different kinases were examined in vitro. At 500 nM concentration, ASK-2a inhibited the kinase activities of GSK3α, GSK3β, p38α, p38β, JNK3, MLK3, and B-Raf substantially. […] As described above, ASK-2a protects cerebellar granule neurons against LK-induced death but is ineffective against HCA-induced toxicity of HT-22 cells. In contrast, HSB-13 is protective in both paradigms. […] Previous studies have established that CDK inhibitors can protect neurons against a number of different apoptotic stimuli.
(§2) The activity of each kinase was measured in vitro in the presence either 100 nM or 500 nM ASK-2a. Kinase activity is expressed as a percentage of that in control assays (without ASK-2a). The values are mean of assays performed in duplicate. Substantial inhibition of kinase activity (>20%) is in bold type.
(§3) Table 3: Effect of HSB-13 at 500 nM on 20 different kinases measured in vitro. Kinase activity is expressed as a percentage of that in control assays (without HSB-13). The values are mean of assays performed in duplicate. Substantial inhibition of kinase activity (>20%) is in bold type.

[2] = molecular target: T1, ASK1 (Homo sapiens, UniProt Q99683); assay: In vitro kinase activity; assay type: biochemical; conditions: percentage of control assays without compound, mean of duplicate
T1 sequence (Q99683 1-1374): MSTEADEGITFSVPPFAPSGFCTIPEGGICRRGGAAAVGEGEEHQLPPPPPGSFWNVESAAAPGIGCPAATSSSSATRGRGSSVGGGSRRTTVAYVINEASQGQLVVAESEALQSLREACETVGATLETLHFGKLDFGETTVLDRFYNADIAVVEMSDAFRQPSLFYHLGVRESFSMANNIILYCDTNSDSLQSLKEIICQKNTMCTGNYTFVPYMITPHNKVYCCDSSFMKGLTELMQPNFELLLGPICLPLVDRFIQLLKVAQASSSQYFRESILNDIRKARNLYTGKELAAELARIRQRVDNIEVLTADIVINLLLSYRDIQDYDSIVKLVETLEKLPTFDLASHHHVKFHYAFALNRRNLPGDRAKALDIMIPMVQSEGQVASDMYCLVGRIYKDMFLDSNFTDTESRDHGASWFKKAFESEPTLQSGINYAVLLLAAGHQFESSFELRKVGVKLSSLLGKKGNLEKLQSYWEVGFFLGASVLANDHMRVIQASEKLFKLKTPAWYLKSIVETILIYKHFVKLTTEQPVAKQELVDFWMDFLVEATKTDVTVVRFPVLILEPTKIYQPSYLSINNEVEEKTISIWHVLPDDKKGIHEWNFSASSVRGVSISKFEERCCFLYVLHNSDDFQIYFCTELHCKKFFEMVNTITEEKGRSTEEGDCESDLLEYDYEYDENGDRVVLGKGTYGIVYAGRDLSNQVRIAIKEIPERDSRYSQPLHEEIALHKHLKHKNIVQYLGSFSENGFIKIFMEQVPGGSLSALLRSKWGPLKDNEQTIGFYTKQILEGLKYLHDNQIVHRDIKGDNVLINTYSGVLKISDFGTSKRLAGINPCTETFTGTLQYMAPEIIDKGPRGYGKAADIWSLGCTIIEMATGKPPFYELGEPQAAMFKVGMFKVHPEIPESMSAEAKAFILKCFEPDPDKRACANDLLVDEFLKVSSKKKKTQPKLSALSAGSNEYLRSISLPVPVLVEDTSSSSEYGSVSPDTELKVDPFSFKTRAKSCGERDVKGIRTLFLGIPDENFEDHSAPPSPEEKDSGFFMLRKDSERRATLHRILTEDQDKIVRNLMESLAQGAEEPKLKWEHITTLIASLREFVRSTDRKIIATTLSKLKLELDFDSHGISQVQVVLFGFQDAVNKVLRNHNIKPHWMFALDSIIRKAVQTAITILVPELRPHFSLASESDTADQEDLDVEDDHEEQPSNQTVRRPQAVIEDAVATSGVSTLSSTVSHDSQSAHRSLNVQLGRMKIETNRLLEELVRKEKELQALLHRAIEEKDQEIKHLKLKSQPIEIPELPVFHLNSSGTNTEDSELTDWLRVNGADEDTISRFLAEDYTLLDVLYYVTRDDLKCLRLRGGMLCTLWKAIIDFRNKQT
Protocol: as §1, §2, §3

[3] = molecular target: CDK6/Cyclin D3 (Homo sapiens, UniProt Q00534); assay: In vitro kinase activity; assay type: biochemical; conditions: percentage of control assays without compound, mean of duplicate
Protocol: as §1, §2, §3

[4] = tested on: primary cortical neurons; assay: HCA-induced neurotoxicity in primary cortical neurons; assay type: cell-based, rat
[5] = tested on: flies expressing human APP695; assay: APP695-induced toxicity in Drosophila (survival of flies); assay type: in vivo
Protocol: Survival of flies expressing human APP695 compared to controls. […] Bars indicate mean±SEM. FIG. 8 is an image showing HSB-13 protects HT-22 cells against HCA-induced toxicity. HT-22 cells were treated with no additives (Control), 2 mM HCA, or 2 mM HCA+25 μM HSB-13. The appearance of the cultures at 24 hours after treatment is shown.
Expression of human APP695 was induced ubiquitously by crossing transgenic flies carrying a UAS-APP695 construct (Fossgreen et al., 1998) with flies containing an actin-GAL4 promoter using the UAS/GAL4 system (Brand and Perrimon, 1993). Flies were raised at 25° C. in the dark on 10% yeast paste containing different concentrations of HSB-13 (0, 2.5, 5, and 50 μM). The percentage of surviving APP695-expressing progeny was determined by comparing them to control progeny carrying no promoter construct obtained in the same cross and therefore raised under identical conditions as described previously (Greeve et al., 2004).

[6] = tested on: primary cortical neurons; assay: Aβ-induced death of primary cortical neurons; assay type: cell-based, rat; conditions: 5 uM aged Aβ25-35; viability 24 hours later
Protocol: Primary cultures of cortical neurons were cultured from embryonic day 18 rats. The cultures were treated 1-2 days later with 5 uM of aged Aβ peptide (Aβ25-35; purchased from Sigma-Aldrich). Neuronal viability was assayed 24 hours later.

Chain of CDK6/Cyclin D3 (Q00534 whole entry, species assumed): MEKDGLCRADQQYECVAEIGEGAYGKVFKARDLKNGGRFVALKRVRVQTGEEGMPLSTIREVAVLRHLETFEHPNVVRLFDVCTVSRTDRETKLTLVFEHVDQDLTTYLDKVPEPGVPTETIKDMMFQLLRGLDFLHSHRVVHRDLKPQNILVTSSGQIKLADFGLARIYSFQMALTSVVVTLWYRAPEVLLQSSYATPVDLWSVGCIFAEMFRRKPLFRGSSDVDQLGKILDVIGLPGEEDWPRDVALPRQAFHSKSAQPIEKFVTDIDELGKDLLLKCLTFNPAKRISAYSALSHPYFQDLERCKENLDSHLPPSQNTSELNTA
Chain of CDK6/Cyclin D3 (P30281 whole entry partner, species assumed): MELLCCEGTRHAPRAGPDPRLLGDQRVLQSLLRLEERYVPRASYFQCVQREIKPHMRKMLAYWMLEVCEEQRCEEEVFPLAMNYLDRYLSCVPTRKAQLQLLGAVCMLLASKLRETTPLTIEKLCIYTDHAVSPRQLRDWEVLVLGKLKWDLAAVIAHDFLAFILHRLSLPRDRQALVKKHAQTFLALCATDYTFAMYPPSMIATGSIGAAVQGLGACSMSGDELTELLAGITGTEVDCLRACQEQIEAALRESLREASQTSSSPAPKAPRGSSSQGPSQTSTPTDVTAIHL
Chain of GSK3β (P49841 whole entry, species assumed): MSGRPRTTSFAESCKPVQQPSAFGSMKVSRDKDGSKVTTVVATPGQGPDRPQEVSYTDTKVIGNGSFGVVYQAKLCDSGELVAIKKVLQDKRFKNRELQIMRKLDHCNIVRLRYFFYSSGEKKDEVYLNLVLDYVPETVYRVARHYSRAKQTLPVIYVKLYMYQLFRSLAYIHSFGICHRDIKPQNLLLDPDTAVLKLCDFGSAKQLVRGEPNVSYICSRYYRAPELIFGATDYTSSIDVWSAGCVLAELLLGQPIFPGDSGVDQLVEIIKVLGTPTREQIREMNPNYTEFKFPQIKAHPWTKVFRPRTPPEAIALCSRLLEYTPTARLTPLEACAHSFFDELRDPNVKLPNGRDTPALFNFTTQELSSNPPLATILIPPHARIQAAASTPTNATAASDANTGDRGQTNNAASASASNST

Compound | % ACTIVITY ([1]; 100 nM, 0.1 µM) [%] | % ACTIVITY ([1]; 100 nM, listed as ASK2a, 0.1 µM) | % ACTIVITY ([2]; 100 nM) [%] | % ACTIVITY ([2]; 500 nM) [%] | % ACTIVITY ([3]; 100 nM) [%] | % ACTIVITY ([3]; 500 nM) [%] | % ACTIVITY ([1]; 500 nM) [%] | protection against HCA-induced neurotoxicity [4] | survival rate compared to untreated flies ([5]; food containing HSB-13, all p-values<0.05) | survival rate of APP-expressing flies compared to equally treated control flies ([5]; raised on food containing HSB-13, printed as 65% at 50 μM to 44% at 50 μM, untreated about 5%) | protection against Aβ toxicity [6]
O=C1Nc2ccccc2OC1=Cc1cc(Br)c(O)c(Br)c1 [ASK-2a] | 55 | inhibited efficiently | 104 | 97 | 104 | 99 |  |  |  |  | 
Nc1ccc2c(c1)NC(=O)/C(=C/c1cc(Br)c(O)c(Br)c1)O2 [HSB-13, (Z)-6-amino-2-(3,′5′-dibromo-4′-hydrozybenzylidene)-2H-benzo[b][1,4]oxazin-3(4H)-one] |  |  | 104 | 95 | 99 | 89 | 19 | protects | approximately 10 times | 65% and 44% | protects
